As a reminder, the pIC50 is −log10 of the IC50, conventionally taken in molar units. Read a high pIC50 as a small IC50.

Our source for the IC50 values is article PMC2615555 (Virology, 2008).

The structures appear in SMILES notation. pIC50: −log10 of the molar value. Peptide text beside a SMILES is read from it. A value given as a limit tells only on which side of the number the result lay.

Holding throughout (experiment): biochemical
Common to all, as to assay type: binding, BALB/c mouse

In assay [1] the target is H2-D^d (Mus musculus, UniProt P01900).
In assay [2] the target is H2-K^d (Mus musculus, UniProt P01902).
The target of assay [3] is H2-L^d (Mus musculus, UniProt P01897).
Assay [4] addresses T1, I-A^d (Mus musculus, UniProt P01921+P04228).
T1 sequence (P04228 24-256): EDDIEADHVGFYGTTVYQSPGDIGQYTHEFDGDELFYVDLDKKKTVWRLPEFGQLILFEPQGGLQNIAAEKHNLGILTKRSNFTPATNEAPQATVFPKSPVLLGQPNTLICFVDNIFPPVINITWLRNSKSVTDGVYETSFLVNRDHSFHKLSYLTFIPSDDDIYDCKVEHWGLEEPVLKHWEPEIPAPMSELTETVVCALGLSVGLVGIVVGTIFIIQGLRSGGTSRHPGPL
T1 sequence (P01921 28-265): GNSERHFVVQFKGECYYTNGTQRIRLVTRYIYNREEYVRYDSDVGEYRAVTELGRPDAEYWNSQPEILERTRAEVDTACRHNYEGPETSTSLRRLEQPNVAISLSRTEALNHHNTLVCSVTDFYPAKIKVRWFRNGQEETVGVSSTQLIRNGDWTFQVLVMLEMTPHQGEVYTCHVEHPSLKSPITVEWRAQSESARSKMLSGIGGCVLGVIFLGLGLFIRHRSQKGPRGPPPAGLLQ
The note with it: Binding Assay IC50, I-A^d (membrane 15mers).

The target in assay [5] is T2, I-E^d (Mus musculus, UniProt P01904+P01915).
T2 sequence (P01904 26-255): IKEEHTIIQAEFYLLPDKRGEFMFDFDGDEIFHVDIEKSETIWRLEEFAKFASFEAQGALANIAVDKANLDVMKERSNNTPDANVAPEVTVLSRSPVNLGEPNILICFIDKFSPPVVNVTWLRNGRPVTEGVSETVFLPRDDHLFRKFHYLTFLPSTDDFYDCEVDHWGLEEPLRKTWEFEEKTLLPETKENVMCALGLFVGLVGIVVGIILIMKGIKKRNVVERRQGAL
T2 sequence (P01915 27-264 limits assumed): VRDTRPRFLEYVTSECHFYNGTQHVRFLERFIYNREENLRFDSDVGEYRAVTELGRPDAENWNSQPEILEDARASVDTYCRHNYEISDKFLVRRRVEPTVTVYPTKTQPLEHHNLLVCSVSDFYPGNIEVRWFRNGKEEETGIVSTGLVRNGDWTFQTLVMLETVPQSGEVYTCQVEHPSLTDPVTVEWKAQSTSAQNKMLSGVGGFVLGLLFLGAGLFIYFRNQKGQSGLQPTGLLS

H2-L^d, sequence (P01897 25-362): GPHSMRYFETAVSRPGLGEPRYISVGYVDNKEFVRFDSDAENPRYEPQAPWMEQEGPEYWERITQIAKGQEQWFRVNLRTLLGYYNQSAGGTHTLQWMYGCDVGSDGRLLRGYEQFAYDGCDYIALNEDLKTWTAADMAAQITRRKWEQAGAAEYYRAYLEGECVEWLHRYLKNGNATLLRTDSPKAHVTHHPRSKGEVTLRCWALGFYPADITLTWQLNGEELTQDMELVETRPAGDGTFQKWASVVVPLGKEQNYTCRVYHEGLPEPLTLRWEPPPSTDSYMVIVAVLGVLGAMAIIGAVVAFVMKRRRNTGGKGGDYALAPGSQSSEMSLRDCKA
H2-L^d, sequence (P61769 21-119 partner): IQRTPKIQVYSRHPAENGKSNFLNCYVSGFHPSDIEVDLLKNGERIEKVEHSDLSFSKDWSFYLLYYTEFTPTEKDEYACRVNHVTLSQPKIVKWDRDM
H2-D^d, sequence (P01900 25-365): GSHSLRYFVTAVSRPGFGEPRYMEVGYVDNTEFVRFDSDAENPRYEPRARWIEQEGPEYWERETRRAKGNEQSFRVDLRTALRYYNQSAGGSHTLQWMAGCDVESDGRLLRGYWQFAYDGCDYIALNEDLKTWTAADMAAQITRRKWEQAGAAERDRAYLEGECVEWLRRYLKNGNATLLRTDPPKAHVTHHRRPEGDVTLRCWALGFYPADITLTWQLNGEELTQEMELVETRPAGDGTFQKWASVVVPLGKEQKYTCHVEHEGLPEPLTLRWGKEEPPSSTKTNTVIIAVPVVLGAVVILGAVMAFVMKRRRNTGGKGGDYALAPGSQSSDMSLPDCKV
H2-D^d, sequence (P61769 21-119 partner): as the sequence (P61769 21-119 partner) above
H2-K^d, sequence (P01902 22-368): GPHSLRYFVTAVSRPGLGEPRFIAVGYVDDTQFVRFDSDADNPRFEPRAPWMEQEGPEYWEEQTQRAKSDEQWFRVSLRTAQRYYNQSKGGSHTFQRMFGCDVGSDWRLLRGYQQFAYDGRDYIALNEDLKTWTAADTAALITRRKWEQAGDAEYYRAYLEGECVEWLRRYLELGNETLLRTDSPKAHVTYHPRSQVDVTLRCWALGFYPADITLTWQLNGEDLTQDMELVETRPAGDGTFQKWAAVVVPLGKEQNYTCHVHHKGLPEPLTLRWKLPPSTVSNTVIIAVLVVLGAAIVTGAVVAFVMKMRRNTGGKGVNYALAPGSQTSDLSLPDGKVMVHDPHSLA
H2-K^d, sequence (P61769 21-119 partner): as the sequence (P61769 21-119 partner) above

`CC(C)C[C@H](NC(=O)[C@@H](NC(=O)[C@H](C)NC(=O)[C@H](CC(N)=O)NC(=O)[C@H](Cc1ccc(O)cc1)NC(=O)[C@H](CS)NC(=O)[C@@H](NC(=O)[C@H](CCCCN)NC(=O)[C@@H](N)CCCNC(=N)N)C(C)C)C(C)C)C(=O)O` [E57–65]: the pIC50 in assay [1] was under 4.15; in assay [2] it was under 4.15; in assay [3] it was 4.40.
Consider `CC[C@H](C)[C@H](NC(=O)[C@@H](N)C(C)C)C(=O)N[C@H](C(=O)N[C@@H](C)C(=O)N[C@@H](CC(=O)O)C(=O)N[C@@H](CC(=O)O)C(=O)N[C@@H](CC(C)C)C(=O)N[C@H](C(=O)N[C@@H](C)C(=O)O)[C@@H](C)O)C(C)C` [E334–342] (H-VIVADDLTA-OH), for which the pIC50 is under 4.15 in assay [1], under 4.15 in assay [2] and 4.72 in assay [3].
As for `CC[C@H](C)[C@H](NC(=O)[C@@H](NC(=O)[C@@H]1CCCN1)C(C)C)C(=O)N[C@H](C(=O)N[C@@H](C)C(=O)N[C@@H](CC(=O)O)C(=O)N[C@@H](CC(=O)O)C(=O)N[C@@H](CC(C)C)C(=O)N[C@H](C(=O)O)[C@@H](C)O)C(C)C` [E333–341] (H-PVIVADDLT-OH), the pIC50 is under 4.15 in assay [1], under 4.15 in assay [2] and 5.43 in assay [3].
For the molecule `CC[C@H](C)[C@H](N)C(=O)N1CCC[C@H]1C(=O)N[C@H](C(=O)N[C@H](C(=O)N[C@H](C(=O)N[C@@H](C)C(=O)N[C@@H](CC(=O)O)C(=O)N[C@@H](CC(=O)O)C(=O)N[C@@H](CC(C)C)C(=O)O)C(C)C)[C@@H](C)CC)C(C)C` [E332–340] (H-IPVIVADDL-OH), the values for the negative-log IC50 (pIC50) in assay [1], in assay [2] and in assay [3] were under 4.15, 4.48 and 7.25, respectively.
In the same order, the values of `CC[C@H](C)[C@H](N)C(=O)N[C@H](C(=O)N[C@@H](C)C(=O)N[C@@H](CC(=O)O)C(=O)N[C@@H](CC(=O)O)C(=O)N[C@@H](CC(C)C)C(=O)N[C@H](C(=O)N[C@@H](C)C(=O)N[C@@H](C)C(=O)O)[C@@H](C)O)C(C)C` [E335–343] (H-IVADDLTAA-OH) are under 4.15, under 4.15 and 4.42.
In the same order, the values of `CC(C)C[C@H](NC(=O)[C@@H](NC(=O)[C@H](C)NC(=O)[C@H](CC(N)=O)NC(=O)[C@H](Cc1ccc(O)cc1)NC(=O)[C@@H](N)CS)C(C)C)C(=O)N[C@H](C(=O)N[C@@H](Cc1c[nH]cn1)C(=O)N[C@H](C(=O)O)C(C)C)[C@@H](C)O` [E60–68] (H-CYNAVLTHV-OH) are under 4.15, 9.00 and under 4.15.
In the same order, the values of `CC[C@H](C)[C@H](NC(=O)[C@@H](NC(=O)[C@@H]1CCCN1C(=O)[C@@H](NC(=O)[C@H](CCCNC(=N)N)NC(=O)[C@@H](N)CS)[C@@H](C)CC)C(C)C)C(=O)N[C@H](C(=O)N[C@@H](C)C(=O)N[C@@H](CC(=O)O)C(=O)O)C(C)C` [E330–338] (H-CRIPVIVAD-OH) are under 4.15, 6.04 and 4.27.
For `CC[C@H](C)[C@H](N)C(=O)N[C@@H](C)C(=O)N[C@@H](Cc1ccc(O)cc1)C(=O)N[C@@H](CC(C)C)C(=O)N[C@H](C(=O)NCC(=O)N[C@@H](CO)C(=O)N[C@@H](CC(N)=O)C(=O)N[C@@H](CCSC)C(=O)N[C@H](C(=O)N[C@@H](CCC(N)=O)C(=O)N[C@@H](CCCNC(=N)N)C(=O)N[C@H](C(=O)N[C@H](C(=O)N[C@H](C(=O)O)[C@@H](C)CC)C(C)C)C(C)C)[C@@H](C)O)C(C)C` [M49–63], the results for the negative logarithm of the IC50 (pIC50) in assay [4] and in assay [5] were 6.42 and 4.53, respectively.
The like results for `CC[C@H](C)[C@H](NC(=O)[C@H](CCCCN)NC(=O)[C@H](CCC(N)=O)NC(=O)[C@H](CC(C)C)NC(=O)[C@H](CCC(N)=O)NC(=O)[C@H](CCCNC(=N)N)NC(=O)[C@H](CCC(=O)O)NC(=O)CNC(=O)[C@H](CCSC)NC(=O)[C@H](CCCNC(=N)N)NC(=O)CNC(=O)[C@@H](N)[C@@H](C)O)C(=O)N[C@@H](CCC(=O)O)C(=O)N[C@@H](CCCNC(=N)N)C(=O)N[C@@H](Cc1c[nH]c2ccccc12)C(=O)O` [M21–35] were, in that order, 4.37 and under 4.35.
The like results for `CC(C)C[C@H](NC(=O)[C@H](C)NC(=O)[C@@H](NC(=O)[C@@H](NC(=O)[C@H](C)NC(=O)[C@H](Cc1ccccc1)NC(=O)[C@H](Cc1ccccc1)NC(=O)[C@@H]1CCCN1C(=O)[C@H](CC(N)=O)NC(=O)[C@H](CCCNC(=N)N)NC(=O)[C@@H](NC(=O)[C@H](Cc1ccccc1)NC(=O)[C@H](Cc1c[nH]c2ccccc12)NC(=O)[C@H](CCCNC(=N)N)NC(=O)[C@@H](N)CCC(=O)O)C(C)C)C(C)C)[C@@H](C)O)C(=O)O` [M33–47] were, in that order, 8.14 and 5.64.
With `CC[C@H](C)[C@H](NC(=O)[C@H](CCCCN)NC(=O)[C@@H](NC(=O)[C@H](Cc1c[nH]cn1)NC(=O)[C@@H](NC(=O)[C@H](CC(C)C)NC(=O)[C@@H](NC(=O)[C@H](C)N)C(C)C)[C@@H](C)O)C(C)C)C(=O)N[C@@H](CC(N)=O)C(=O)O` [E63–71] (H-AVLTHVKIN-OH), the pIC50 in assay [1] was under 4.15; in assay [2] it was 4.26; in assay [3], 4.68.
Turning to `CC[C@H](C)[C@H](NC(=O)[C@@H](NC(=O)[C@@H](N)C(C)C)C(C)C)C(=O)N[C@@H](C)C(=O)N[C@@H](CC(C)C)C(=O)N[C@@H](CC(C)C)C(=O)N[C@H](C(=O)N[C@@H](CC(C)C)C(=O)N[C@@H](C)C(=O)N[C@H](C(=O)NCC(=O)N1CCC[C@H]1C(=O)N[C@@H](C)C(=O)N[C@@H](Cc1ccc(O)cc1)C(=O)N[C@@H](CO)C(=O)O)C(C)C)C(C)C` [M61–75], the pIC50 is 6.42 in assay [4] and under 4.35 in assay [5].
Turning to `CC(C)C[C@H](NC(=O)[C@@H](NC(=O)[C@H](C)NC(=O)[C@H](CC(N)=O)NC(=O)[C@H](Cc1ccc(O)cc1)NC(=O)[C@H](CS)NC(=O)[C@@H](N)C(C)C)C(C)C)C(=O)N[C@H](C(=O)N[C@@H](Cc1c[nH]cn1)C(=O)O)[C@@H](C)O` [E59–67] (H-VCYNAVLTH-OH), the values for the pIC50 in assay [1], in assay [2] and in assay [3] were under 4.15, 6.68 and 4.26, respectively.
In the same order, the values of `CC(C)C[C@H](NC(=O)[C@@H](NC(=O)[C@H](C)NC(=O)[C@H](CC(N)=O)NC(=O)[C@@H](N)Cc1ccc(O)cc1)C(C)C)C(=O)N[C@H](C(=O)N[C@@H](Cc1c[nH]cn1)C(=O)N[C@H](C(=O)N[C@@H](CCCCN)C(=O)O)C(C)C)[C@@H](C)O` [E61–69] (H-YNAVLTHVK-OH) are under 4.15, 7.03 and under 4.15.
For `CC[C@H](C)[C@H](NC(=O)[C@@H](NC(=O)[C@H](CC(C)C)NC(=O)[C@H](C)NC(=O)[C@@H](NC(=O)[C@@H](NC(=O)[C@H](C)NC(=O)[C@H](Cc1ccccc1)NC(=O)[C@@H](N)Cc1ccccc1)C(C)C)[C@@H](C)O)[C@@H](C)O)C(=O)N[C@@H](C)C(=O)N[C@@H](Cc1ccc(O)cc1)C(=O)N[C@@H](CC(C)C)C(=O)N[C@H](C(=O)NCC(=O)N[C@@H](CO)C(=O)O)C(C)C` [M41–55], the values for the pIC50 in assay [4] and in assay [5] were 5.21 and under 4.35, respectively.
The like results for `CC[C@H](C)[C@H](NC(=O)[C@H](C)N)C(=O)N[C@@H](CC(=O)O)C(=O)N[C@@H](CC(C)C)C(=O)N1CCC[C@H]1C(=O)N[C@H](C(=O)N[C@@H](Cc1c[nH]cn1)C(=O)N[C@@H](CCC(=O)O)C(=O)N[C@@H](CC(N)=O)C(=O)N[C@@H](Cc1c[nH]cn1)C(=O)NCC(=O)N[C@@H](CC(C)C)C(=O)N[C@@H](CCCCN)C(=O)N[C@H](C(=O)N[C@@H](CCCNC(=N)N)C(=O)O)[C@@H](C)O)[C@@H](C)O` [M1–15] were, in that order, under 4.35 and 4.44.
In the same order, the values of `CC[C@H](C)[C@H](NC(=O)[C@@H](NC(=O)[C@@H](NC(=O)[C@H](CCCNC(=N)N)NC(=O)[C@H](CCC(N)=O)NC(=O)[C@@H](NC(=O)[C@H](CCSC)NC(=O)[C@H](CC(N)=O)NC(=O)[C@H](CO)NC(=O)CNC(=O)[C@@H](N)C(C)C)[C@@H](C)O)C(C)C)C(C)C)C(=O)N[C@@H](C)C(=O)N[C@@H](CC(C)C)C(=O)N[C@@H](CC(C)C)C(=O)N[C@H](C(=O)O)C(C)C` [M53–67] are 7.52 and 4.49.
`CC[C@H](C)[C@H](NC(=O)[C@H](CCCCN)NC(=O)[C@@H](NC(=O)[C@H](Cc1c[nH]cn1)NC(=O)[C@@H](NC(=O)[C@H](CC(C)C)NC(=O)[C@@H](NC(=O)[C@H](C)NC(=O)[C@@H](N)CC(N)=O)C(C)C)[C@@H](C)O)C(C)C)C(=O)O` [E62–70] (H-NAVLTHVKI-OH): the pIC50 is under 4.15 in assay [1], 5.81 in assay [2] and under 4.15 in assay [3].
